Key:
[1] = target: T1, Cow milk Xanthine Oxidase (Bos taurus, UniProt P80457); assay: Xanthine oxidase inhibition, in vitro (oxidation of xanthine, absorbance at 290 nm); type: biochemical; settings: xanthine 250 μM, 50 mM phosphate buffer pH 7.5, 30° C., 10 minutes
T1 construct: Cow milk Xanthine Oxidase (Roche); purchased Roche; host or cells: cow milk (natural source)
Protocol: The xanthine oxidase inhibiting action (in vitro test) of the compound of the invention was confirmed by measuring inhibition of oxidation of xanthine by xanthine oxidase, as described in Example 50. As is clear from Tables 11 and 12, the compounds of the invention show excellent xanthine oxidase inhibiting action.
Pharmacological Experiment 1 (In Vitro Measuring Method)
1. Preparation of Test Sample
The test compound was dissolved in dimethylsulfoxide and diluted with 50 mM phosphate buffer (pH 7.5), to give a solution of a predetermined concentration.
125 μL of each of the solutions of the test compound having different concentrations was added to 1 mL of a solution of Xanthine (SIGMA, 250 μM) in the 50 mM phosphor buffer (pH 7.5). The mixture was then pre-incubated at 30° C. for 5 min. Subsequently, to the pre-incubated mixture was added 125 μL of Cow milk Xanthine Oxidase (Roche) diluted with the 50 mM phosphate buffer (pH 7.5) to 70 mU/mL, and the mixture was subjected to reaction at 30° C. for 10 minutes. Then, 1N hydrochloric acid, (200 μL) was added to the reaction mixture to terminate the reaction. Subsequently, absorbance at OD 290 nm was measured by means of a spectrophotometer (Shimadzu UV-160A)., to obtain a inhibition ratio. The measured inhibition ration was used to obtain […]
The inhibition ratio was calculated according to the following formula: Inhibition ratio (%)=[1−(B−C)/(A−C)]×100 • A: absorbance of control • B: absorbance measured on a sample containing test compound • C: absorbance of blank (Test Results)

T1 sequence (P80457 whole entry): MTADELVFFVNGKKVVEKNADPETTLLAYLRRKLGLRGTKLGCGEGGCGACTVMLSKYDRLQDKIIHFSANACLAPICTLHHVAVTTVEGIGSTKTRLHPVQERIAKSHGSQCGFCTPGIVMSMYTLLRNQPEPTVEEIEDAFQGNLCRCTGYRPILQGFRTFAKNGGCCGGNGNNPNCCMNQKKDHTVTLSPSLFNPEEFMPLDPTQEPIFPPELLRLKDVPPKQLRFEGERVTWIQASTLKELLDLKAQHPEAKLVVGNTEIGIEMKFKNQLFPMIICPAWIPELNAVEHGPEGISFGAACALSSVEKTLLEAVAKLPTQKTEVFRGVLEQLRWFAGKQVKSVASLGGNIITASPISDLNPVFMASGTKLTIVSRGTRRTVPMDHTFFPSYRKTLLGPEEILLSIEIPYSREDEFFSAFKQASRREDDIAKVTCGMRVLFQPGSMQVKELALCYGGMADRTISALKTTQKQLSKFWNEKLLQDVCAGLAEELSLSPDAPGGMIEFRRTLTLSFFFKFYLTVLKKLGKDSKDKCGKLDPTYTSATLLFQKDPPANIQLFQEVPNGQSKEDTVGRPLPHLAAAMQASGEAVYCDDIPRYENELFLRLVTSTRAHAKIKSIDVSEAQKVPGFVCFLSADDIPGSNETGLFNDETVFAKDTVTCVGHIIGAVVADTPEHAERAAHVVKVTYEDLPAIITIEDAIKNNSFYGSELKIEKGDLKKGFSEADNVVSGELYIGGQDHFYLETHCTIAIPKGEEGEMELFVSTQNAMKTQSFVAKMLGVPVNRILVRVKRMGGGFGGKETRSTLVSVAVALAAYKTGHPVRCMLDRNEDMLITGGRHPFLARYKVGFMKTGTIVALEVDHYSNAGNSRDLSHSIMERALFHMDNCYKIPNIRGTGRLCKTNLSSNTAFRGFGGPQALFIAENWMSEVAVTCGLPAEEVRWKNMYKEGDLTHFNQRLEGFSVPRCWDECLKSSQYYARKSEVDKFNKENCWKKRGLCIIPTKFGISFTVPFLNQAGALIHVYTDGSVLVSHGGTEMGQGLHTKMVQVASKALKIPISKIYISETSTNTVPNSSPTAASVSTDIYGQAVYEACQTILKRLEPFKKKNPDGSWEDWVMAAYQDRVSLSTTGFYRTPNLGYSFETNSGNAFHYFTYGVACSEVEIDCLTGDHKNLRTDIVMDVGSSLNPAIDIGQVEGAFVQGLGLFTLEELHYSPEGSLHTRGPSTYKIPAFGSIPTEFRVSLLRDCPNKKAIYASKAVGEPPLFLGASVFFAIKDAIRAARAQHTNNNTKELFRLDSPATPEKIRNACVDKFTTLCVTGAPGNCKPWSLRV

Compound	melting point	IC50 [1] [nM]
O=[N+]([O-])c1cc(-c2nc3c(O)ncnc3s2)ccc1Oc1cccc(F)c1 [Example 20, 2-[4-(3-Fluorophenoxy)-3-nitrophenyl]-4-hydroxythiazolo[5,4-d]pyrimidine]	279 to 281 °C (dec.)	10.2
O=[N+]([O-])c1cc(-c2nc3c(O)ncnc3s2)ccc1Oc1ccccc1 [Example 7, 4-Hydroxy-2-(3-nitro-4-phenoxyphenyl)-thiazolo[5,4-d]pyrimidine]	278 to 281 °C (dec.)	8.8
O=[N+]([O-])c1cc(-c2nc3c(O)ncnc3s2)ccc1Oc1ccccc1Cl [Example 18, 2-[4-(2-Chlorophenoxy)-3-nitrophenyl]-4-hydroxythiazolo[5,4-d]pyrimidine]	283 to 288 °C (dec.)	8
O=[N+]([O-])c1cc(-c2nc3c(O)ncnc3o2)ccc1Sc1ccc(Cl)cc1 [Example 6, 2-[4-(4-Chlorophenylthio)-3-nitrophenyl]-4-hydroxyoxazolo[5,4-d]pyrimidine]	> 250 °C	30.2
O=[N+]([O-])c1cc(-c2nc3c(O)ncnc3s2)ccc1Oc1ccc(F)cc1 [Example 12, 2-[4-(4-Fluorophenoxy)-3-nitrophenyl]-4-hydroxythiazolo[5,4-d]pyrimidine]	282 to 284 °C (dec.)	9.3
O=[N+]([O-])c1cc(-c2nc3c(O)ncnc3s2)ccc1Oc1ccc(Cl)cc1 [Example 5, 2-[4-(4-Chlorophenoxy)-3-nitrophenyl]-4-hydroxythiazolo[5,4-d]pyrimidine]	304 to 306 °C (dec.)	20.2

— patent US20070293512A1, “Condensed Pyrimidine Deriviative and Xanthine Oxidase Inhibitor” (priority 2004, published 2007)
